The structures appear in SMILES notation.

Experimental findings from patent publication US7030113B2, “Aminobenzimidazoles as selective melanin concentrating hormone receptor antagonists for the treatment of obesity and related disorders” (Schering Corporation, priority 2003, dated 2006) are described below.

The target of this test is T1, MCH receptor (Homo sapiens, UniProt Q99705).
T1 construct: expressed in transfected cells; host or cells: CHO cells
T1 sequence (Q99705 whole entry): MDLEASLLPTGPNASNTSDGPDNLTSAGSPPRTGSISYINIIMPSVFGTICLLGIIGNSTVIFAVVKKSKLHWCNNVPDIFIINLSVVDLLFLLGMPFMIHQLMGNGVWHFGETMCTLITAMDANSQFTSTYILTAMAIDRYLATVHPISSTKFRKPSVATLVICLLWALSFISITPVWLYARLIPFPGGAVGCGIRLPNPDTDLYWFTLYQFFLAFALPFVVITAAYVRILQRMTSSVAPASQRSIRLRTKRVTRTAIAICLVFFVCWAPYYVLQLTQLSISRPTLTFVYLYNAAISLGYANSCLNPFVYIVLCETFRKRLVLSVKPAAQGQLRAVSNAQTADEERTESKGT
Briefly: MCH Receptor Binding Assay. The following applies: membranes from CHO cells expressing the MCH receptor, [125I]-MCH, SPA; read-out: Activity Class (Ki). As to the method: MCH Receptor Binding Assay:
Membranes from CHO cells expressing the MCH receptor were prepared by lysing cells with 5 mM HEPES for 15 min at 4C. Cell lysates were centrifuged ([…], 15 min) and the pellet was resuspended in 5 mM HEPES. For each 96-well plate (Microlite, Dynex Technologies), 1 mg of cell membranes were incubated with 10 mg of wheat germ agglutinin SPA beads (Amersham) for 5 min at 4 C in a volume of 10 ml of binding buffer (25 mM HEPES, 10 mM MGCl2, 10 mM NaCl, 5 mM MnCl2, 0.1% BSA). The membrane/bead mixture was centrifuged (1500×g, 3.5 min), the supernatant was aspirated, and the pellet was resuspended in 10 ml binding buffer. The centrifugation, aspiration and resuspension were then repeated. The membrane/bead mixture (100 μl) was then added to 96-well plates containing 50 μl of 500 pM [^125I]-MCH (NEN) and […] of the appropriate concentration of compound (4× the desired final concentration). Nonspecific binding was determined by including 1 μM MCH in the binding reaction. The binding reaction was incubated at room temperature for 2 h. Plates were then analyzed in a TOPCOUNT microplate scintillation counter (Packard). Data was analyzed and Ki values were determined using GraphPad Prism.
As usually defined, the Ki is a dissociation constant, usually derived from enzyme kinetics or from competition with a known ligand. For `CN1CCN(CCCN(c2nc3cc(Cl)c(F)cc3[nH]2)[C@@H]2CC[C@]3(c4cccc(C#N)c4)C[C@@H]3C2)CC1` [Example 8c], the Ki is below 10 nM.
As for `CN1CCN(CCCN(c2nc3cc(Cl)c(Cl)cc3[nH]2)[C@@H]2CC[C@]3(c4cccc(C=O)c4)C[C@@H]3C2)CC1` [Example 9a], the Ki lay in the range of 10 to 30 nM.
On to `CN1CCN(CCCN(c2nc3cc(F)c(F)cc3[nH]2)[C@@H]2CC[C@]3(c4cccc(C=O)c4)C[C@@H]3C2)CC1` [Example 9b], for which the Ki was in the range of 10 to 30 nM.
To `CN(C)Cc1cccc([C@]23CC[C@@H](N(CCCN4CCN(C)CC4)c4nc5cc(Cl)c(Cl)cc5[nH]4)C[C@H]2C3)c1` [Example 10a] belongs below 10 nM; to `CN1CCN(CCCN(c2nc3cc(Cl)c(Cl)cc3[nH]2)[C@@H]2CC[C@]3(c4cccc(CN5CCOCC5)c4)C[C@@H]3C2)CC1` [Example 10b], 10 to 30 nM; to `CN1CCN(CCCN(c2nc3cc(F)c(F)cc3[nH]2)[C@@H]2CC[C@]3(c4cccc(CN5CCCC5)c4)C[C@@H]3C2)CC1` [Example 10c], 10 to 30 nM.
`CN(C)Cc1cccc([C@]23CC[C@@H](N(CCCN4CCN(C)CC4)c4nc5cc(F)c(F)cc5[nH]4)C[C@H]2C3)c1` [Example 10d]: the inhibition constant (Ki) was above 100 nM.
To `CN1CCN(CCCN(c2nc3cc(F)c(F)cc3[nH]2)[C@@H]2CC[C@]3(c4cccc(CN5CCOCC5)c4)C[C@@H]3C2)CC1` [Example 10e] belongs 10 to 30 nM; to `CN1CCN(CCCN(c2nc3cc(F)c(F)cc3[nH]2)[C@@H]2CC[C@]3(c4cccc(CN5CC[C@@H](O)C5)c4)CC3C2)CC1` (some centres unmarked) [Example 10f], above 100 nM.
To `CS(=O)(=O)N1CCC(CN(c2nc3cc(Cl)c(Cl)cc3[nH]2)[C@@H]2CC[C@]3(c4cccc(C#N)c4)C[C@@H]3C2)CC1` [Example 16a] belongs below 10 nM; to `CS(=O)(=O)N1CCC(CN(c2nc3cc(F)c(F)cc3[nH]2)[C@@H]2CC[C@]3(c4cccc(C#N)c4)C[C@@H]3C2)CC1` [Example 16b], 10 to 30 nM; to `CS(=O)(=O)N1CCC(CN(c2nc3cc(F)c(Cl)cc3[nH]2)[C@@H]2CC[C@]3(c4cccc(C#N)c4)C[C@@H]3C2)CC1` [Example 16c], below 10 nM.
For the molecule `CC(C)(C)OC(=O)N1CCC(CN(c2nc3cc(Cl)c(Cl)cc3[nH]2)[C@@H]2CC[C@]3(c4cccc(C#N)c4)CC3C2)CC1` (some centres unmarked) [Example 21], the Ki is above 100 nM.
`N#Cc1cccc([C@]23CC[C@@H](N(CC4CCNCC4)c4nc5cc(Cl)c(Cl)cc5[nH]4)CC2C3)c1` (some centres unmarked) [Example 22]: the Ki is below 10 nM.
As to `CO/N=C/c1cccc([C@]23CC[C@@H](N(CCCN4CCN(C)CC4)c4nc5cc(F)c(F)cc5[nH]4)CC2C3)c1` (some centres unmarked) [Example 24], the inhibitory constant (Ki) fell in the range of 10 to 30 nM.
On to `CN1CCN(CCCN(c2nc3cc(Cl)c(Cl)cc3[nH]2)[C@@H]2CC[C@]3(c4cccc(C#N)c4)C[C@H]23)CC1` [Example 30a], for which the inhibition constant (Ki) is below 10 nM.
Take `CN1CCN(CCCN(c2nc3cc(Cl)c(F)cc3[nH]2)[C@@H]2CC[C@]3(c4cccc(C#N)c4)C[C@H]23)CC1` [Example 30b]: the Ki is below 10 nM.
`CN1CCN(CCCN(c2nc3cc(F)c(F)cc3[nH]2)[C@@H]2CC[C@]3(c4cccc(C#N)c4)C[C@H]23)CC1` [Example 30c]: the Ki fell in the range of 10 to 30 nM.
Turning to `CN1CCN(CCCN(c2nc3cc(F)c(Cl)cc3[nH]2)[C@@H]2CC[C@]3(c4cccc(Br)c4)CC23)CC1` (some centres unmarked) [Example 30d], the Ki was 10 to 30 nM.
`CN1CCN(CCCN(c2nc3cc(F)c(C(F)(F)F)cc3[nH]2)[C@@H]2CC[C@]3(c4ccc(C#N)cc4)CC23)CC1` (some centres unmarked) [Example 35a]: the Ki was below 10 nM.
Turning to `CN1CCN(CCCN(c2nc3cc(Cl)c(Cl)cc3[nH]2)[C@@H]2CC[C@]3(c4ccc(C#N)cc4)C[C@H]23)CC1` [Example 35b], the Ki was in the range of 10 to 30 nM.
`CN1CCN(CCCN(c2nc3cc(Cl)c(F)cc3[nH]2)[C@@H]2CC[C@]3(c4ccc(C#N)cc4)C[C@H]23)CC1` [Example 35c]: the Ki was below 10 nM.
For the molecule `CN1CCN(CCCN(c2nc3cc(F)c(Cl)cc3n2C)[C@@H]2CC[C@]3(c4cccc(C#N)c4)CC23)CC1` (some centres unmarked) [Example 36], the inhibition constant (Ki) was above 100 nM.
